Test results reported in ChEMBL document CHEMBL1201862, “PubChem BioAssay data set” (2004).
Calls of active or inactive are those of the source.

What was measured:
[1] = HEp-2 cell cytotoxicity, dose response, cytotoxicity control for RSV inhibitor project, HTS (AID 2410); assay type: functional; conditions: human respiratory syncytial virus
H4 = assay: Luminescence Cell-Based Dose Response HTS to Identify Activators of 5'UTR Stem-Loop Driven Prion Protein mRNA Translation in H4 Neuroglioblastoma Cells. [Related pubchem assays: 1829 (Project Summary), 1814 (Primary HTS)]; assay type: functional; conditions: Homo sapiens
cells = assay type: functional
[2] = target: FAD-linked sulfhydryl oxidase ALR (Homo sapiens, UniProt P55789); assay: inhibitors of human ALR sulfhydryl oxidase, dose response, biochemical, H2O2 detection, luminescence, cherry-pick (AID 493248)
FAD-linked sulfhydryl oxidase ALR, sequence (P55789 whole entry): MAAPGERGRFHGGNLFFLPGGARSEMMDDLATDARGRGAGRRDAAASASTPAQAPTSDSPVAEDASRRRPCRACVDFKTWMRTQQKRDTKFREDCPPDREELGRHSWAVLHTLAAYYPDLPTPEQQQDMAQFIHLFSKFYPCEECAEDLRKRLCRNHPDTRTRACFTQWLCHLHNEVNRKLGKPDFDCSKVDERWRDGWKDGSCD

[3] = target: T1, Rac GTPase-activating protein 1 (Homo sapiens, UniProt Q9H0H5); assay: MgcRacGAP GTPase-activating activity inhibitors, confirmation, biochemical, ADP Hunter fluorescence, primary and confirmatory (AID 624330); assay type: functional
T1 sequence (Q9H0H5 whole entry): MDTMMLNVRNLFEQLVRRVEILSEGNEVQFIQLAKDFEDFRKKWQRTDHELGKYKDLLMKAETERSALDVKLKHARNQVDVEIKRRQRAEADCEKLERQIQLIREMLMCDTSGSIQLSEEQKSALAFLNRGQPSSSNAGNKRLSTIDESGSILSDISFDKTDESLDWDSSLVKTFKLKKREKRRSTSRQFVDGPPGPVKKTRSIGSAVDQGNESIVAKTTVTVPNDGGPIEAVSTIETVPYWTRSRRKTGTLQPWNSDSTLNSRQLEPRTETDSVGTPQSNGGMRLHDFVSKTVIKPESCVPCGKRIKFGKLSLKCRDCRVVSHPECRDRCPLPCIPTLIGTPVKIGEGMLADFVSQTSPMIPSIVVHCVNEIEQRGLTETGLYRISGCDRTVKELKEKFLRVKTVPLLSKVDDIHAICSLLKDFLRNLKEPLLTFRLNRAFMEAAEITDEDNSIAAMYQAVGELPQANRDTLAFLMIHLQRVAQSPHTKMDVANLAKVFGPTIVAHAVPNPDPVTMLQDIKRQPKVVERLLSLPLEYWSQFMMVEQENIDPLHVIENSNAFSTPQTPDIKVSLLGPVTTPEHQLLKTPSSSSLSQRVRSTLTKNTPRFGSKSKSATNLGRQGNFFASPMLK

Streptokinase A = target: T2, Streptokinase A (Streptococcus pyogenes serotype M1, UniProt P10520); assay: S. pyogenes streptokinase expression inhibitors, potency, dose response, plasminogen activation absorbance, OD405 (AID 1914); assay type: functional, Streptococcus pyogenes M1 GAS;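 further: secreted streptokinase activity via plasminogen activation per viability signal from cell pellet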
T2 sequence (P10520 whole entry): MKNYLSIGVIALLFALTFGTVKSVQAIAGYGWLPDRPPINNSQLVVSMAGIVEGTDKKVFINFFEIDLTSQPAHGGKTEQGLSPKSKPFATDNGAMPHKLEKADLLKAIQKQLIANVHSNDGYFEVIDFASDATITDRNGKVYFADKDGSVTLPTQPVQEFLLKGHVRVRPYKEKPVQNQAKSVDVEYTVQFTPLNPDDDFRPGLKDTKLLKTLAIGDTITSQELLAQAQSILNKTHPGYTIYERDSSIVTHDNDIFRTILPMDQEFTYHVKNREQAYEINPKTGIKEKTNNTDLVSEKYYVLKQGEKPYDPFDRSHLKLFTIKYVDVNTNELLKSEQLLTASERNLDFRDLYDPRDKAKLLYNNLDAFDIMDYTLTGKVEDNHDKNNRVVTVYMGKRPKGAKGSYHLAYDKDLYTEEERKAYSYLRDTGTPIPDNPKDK

Streptococcus = assay: Group A Streptococcus viability loss, dose response, counter-screen for streptokinase expression inhibitor project, luminescence, BacTiterGlo (AID 1915); assay type: functional, organism-based;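 further: potency for reduction of bacterial viability or growth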
[4] = tested on: Streptococcus sp. 'group A'; assay: growth inhibition of control SK(-) GAS strain, dose response, counter-screen for streptokinase expression inhibitor project, luminescence, kanamycin, BacTiterGlo, confirmation (AID 1900); assay type: functional, organism-based
[5] = Luminescence Cell-Based Dose Retest to Confirm Inhibitors of Cancer Stem Cells. [Related pubchem assays (depositor defined):AID2717, AID2721]; assay type: functional; conditions: Homo sapiens
Large T antigen = Large T antigen (Simian virus 40, UniProt P03070); assay type: functional, Betapolyomavirus macacae;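 further: Confirmatory-stage PubChem screen for compounds that inhibit SV40 T antigen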
Large T antigen, sequence (P03070 whole entry): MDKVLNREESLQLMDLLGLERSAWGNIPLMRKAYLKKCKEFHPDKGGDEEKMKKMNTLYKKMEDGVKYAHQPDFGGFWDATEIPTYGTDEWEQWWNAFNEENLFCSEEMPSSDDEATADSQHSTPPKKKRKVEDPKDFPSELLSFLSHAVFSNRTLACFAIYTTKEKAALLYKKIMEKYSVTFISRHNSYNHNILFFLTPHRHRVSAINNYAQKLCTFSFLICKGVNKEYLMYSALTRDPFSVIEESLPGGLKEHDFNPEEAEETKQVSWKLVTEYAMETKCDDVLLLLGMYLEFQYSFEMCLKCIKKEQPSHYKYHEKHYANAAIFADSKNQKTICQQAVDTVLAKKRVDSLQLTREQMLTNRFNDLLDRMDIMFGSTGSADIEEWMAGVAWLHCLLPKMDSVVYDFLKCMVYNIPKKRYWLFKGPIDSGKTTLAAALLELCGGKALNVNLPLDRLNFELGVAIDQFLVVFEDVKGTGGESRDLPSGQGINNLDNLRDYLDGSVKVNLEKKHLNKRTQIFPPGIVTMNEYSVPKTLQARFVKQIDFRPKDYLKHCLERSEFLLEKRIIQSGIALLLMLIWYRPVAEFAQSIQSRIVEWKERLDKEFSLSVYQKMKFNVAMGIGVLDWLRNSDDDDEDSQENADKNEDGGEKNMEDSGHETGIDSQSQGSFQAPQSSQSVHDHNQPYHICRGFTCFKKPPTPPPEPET

[6] = Luminescence Cell-Based Dose Response HTS to Identify Activators of Luciferase Translation or Activity in H4 […] Cells. [Related pubchem assays: 1829 (Project Summary), 1814 (Primary HTS)]; assay type: functional
[7] = cytotoxicity toward NIH3T3 fibroblasts, dose response, counter-screen, cell-based, ATP luminescence, mouse fibroblasts (AID 2010); assay type: functional;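 further: cells exposed to compound for about 90 hours before reading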
[8] = inhibitors of intracellular T. cruzi replication, confirmation, NIH3T3 host cells, beta-gal luminescence (AID 2044); assay type: functional, cell-based;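 further: intracellular parasites grown in NIH/3T3 mouse fibroblasts as host cells; luminescent beta-galactosidase reporter signal from transgenic T. cruzi replicating inside host cells; inhibitors lower the luminescence signal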
INS1 = assay: beta cell apoptosis inhibitors, cytokine rescue, dose response, luminescence, retest (AID 449756); assay type: functional, cell-based; conditions: Rattus norvegicus;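 further: cell death triggered by IL-1 beta plus TNF-alpha plus IFN-gamma mixture; protective hits raise ATP signal compared with cytokine alone wells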
[9] = target: T3, Heat shock factor protein 1 (Mus musculus, UniProt P38532); assay: inhibition of MG132-induced HSE-luciferase signal, confirmation, cell-based, NIH3T3, luminescence, dose retest (AID 2382); assay type: functional;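 further: NIH3T3 fibroblasts with HSF1-driven luciferase reporter stressed by proteasome inhibitor MG132; luminescence from HSF1-driven luciferase expression after 8 hours of MG132 stress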
T3 sequence (P38532 whole entry): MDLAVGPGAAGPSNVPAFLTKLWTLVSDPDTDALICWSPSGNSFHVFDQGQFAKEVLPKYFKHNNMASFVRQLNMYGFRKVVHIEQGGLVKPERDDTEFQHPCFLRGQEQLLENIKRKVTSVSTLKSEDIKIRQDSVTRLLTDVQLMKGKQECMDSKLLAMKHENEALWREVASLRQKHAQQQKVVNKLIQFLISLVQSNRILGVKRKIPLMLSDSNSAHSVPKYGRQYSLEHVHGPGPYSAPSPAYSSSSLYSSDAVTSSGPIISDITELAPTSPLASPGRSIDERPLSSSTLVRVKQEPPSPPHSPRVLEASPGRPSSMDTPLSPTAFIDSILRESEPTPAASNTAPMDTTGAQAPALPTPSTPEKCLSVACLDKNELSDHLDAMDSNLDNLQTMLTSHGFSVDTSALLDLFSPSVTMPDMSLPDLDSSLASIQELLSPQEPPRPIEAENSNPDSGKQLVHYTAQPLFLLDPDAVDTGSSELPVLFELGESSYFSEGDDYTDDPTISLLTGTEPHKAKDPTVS

Cytochrome P450 2C9 = Cytochrome P450 2C9 (Homo sapiens, UniProt P11712)
Cytochrome P450 2C9, sequence (P11712 whole entry): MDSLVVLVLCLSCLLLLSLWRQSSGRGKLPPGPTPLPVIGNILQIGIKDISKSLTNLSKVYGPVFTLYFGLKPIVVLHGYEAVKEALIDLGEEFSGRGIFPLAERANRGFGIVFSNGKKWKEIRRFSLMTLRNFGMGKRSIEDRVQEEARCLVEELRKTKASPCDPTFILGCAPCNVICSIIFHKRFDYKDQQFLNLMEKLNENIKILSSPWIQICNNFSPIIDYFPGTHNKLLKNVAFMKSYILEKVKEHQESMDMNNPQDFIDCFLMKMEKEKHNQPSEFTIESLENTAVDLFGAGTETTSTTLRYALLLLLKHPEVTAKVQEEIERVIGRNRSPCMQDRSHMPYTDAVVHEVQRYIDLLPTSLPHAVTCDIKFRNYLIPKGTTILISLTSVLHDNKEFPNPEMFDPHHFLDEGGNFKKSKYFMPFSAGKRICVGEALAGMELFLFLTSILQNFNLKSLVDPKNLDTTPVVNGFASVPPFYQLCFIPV

[10] = Luminescence Cell-Based Dose Confirmation HTS to Identify Inhibitors of Platelet Dense Granule Release. [Related pubchem assays: 1663 (Primary HTS), 1678 (Summary of Project)]; assay type: functional
[11] = target: Luciferin 4-monooxygenase (Photinus pyralis, UniProt P08659); assay: firefly luciferase enzyme inhibitors, dose response, biochemical, luminescence (AID 1891)
Luciferin 4-monooxygenase, sequence (P08659 whole entry): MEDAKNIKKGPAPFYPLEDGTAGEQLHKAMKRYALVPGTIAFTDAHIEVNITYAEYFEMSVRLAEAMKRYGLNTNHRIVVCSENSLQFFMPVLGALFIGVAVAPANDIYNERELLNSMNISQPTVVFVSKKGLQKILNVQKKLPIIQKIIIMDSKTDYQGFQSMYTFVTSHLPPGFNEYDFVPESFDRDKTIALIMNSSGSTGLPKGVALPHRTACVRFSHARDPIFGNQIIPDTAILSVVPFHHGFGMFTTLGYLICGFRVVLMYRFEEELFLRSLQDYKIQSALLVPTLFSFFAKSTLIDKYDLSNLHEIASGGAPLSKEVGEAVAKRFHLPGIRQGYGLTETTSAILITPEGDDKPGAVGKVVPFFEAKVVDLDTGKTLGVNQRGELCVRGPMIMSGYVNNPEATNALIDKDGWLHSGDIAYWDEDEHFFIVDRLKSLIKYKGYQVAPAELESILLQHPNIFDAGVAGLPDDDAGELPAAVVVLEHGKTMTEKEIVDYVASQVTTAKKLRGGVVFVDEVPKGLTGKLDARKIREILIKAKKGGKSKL

SMILES: CCOC(=O)Cc1csc(NC(=O)/C=C/c2ccccc2Cl)n1
- CC50 [1]: 18.9 µM (active)

SMILES: CCSc1ncc(/C=N/Nc2ccc([N+](=O)[O-])cc2)n1C
- EC50 (H4): 0.793 µM (active)

SMILES: CCn1nnc(NC(=O)c2sc3ccccc3c2Cl)n1
- IC50 (cells): 19.2 µM (active)

SMILES: O=C(CN1CCN(c2ccccc2)CC1)Nc1ccccc1Cl
- AC50 [2]: 6.68 µM (active)

SMILES: COc1ccccc1CNCC(=O)N1CC(=O)Nc2ccccc21
- IC50 [3]: 143 µM (active)

SMILES: CC(=O)Nc1ccc(OC(=O)Cc2ccc(Cl)cc2)cc1
- IC50 [3]: 23.4 µM (active)

SMILES: CCOC(=O)c1cc(-c2cccs2)nc2c1c(C)nn2-c1ccccn1
- CC50 [1]: 16.4 µM (active)
- EC50 (Streptokinase A): 122 µM (active)
- EC50 (Streptococcus): 21.6 µM (active)
- EC50 [4]: 13.1 µM (active)
- AC50 [5]: 8.5 µM (active)

SMILES: COc1cc(NS(=O)(=O)c2ccc(NC(=O)NC3CCCCC3)cc2)nc(OC)n1
- AC50 [2]: 3.49 µM (active)

SMILES: COc1cc(C2OCC3C(c4ccc(OC5OC(CO)C(O)C(O)C5O)c(OC)c4)OCC23)ccc1O (stereo unspecified)
- IC50 (Large T antigen): 21.3 µM (active)

SMILES: COC(=O)COc1ccc(-c2nn(C)c(=O)c3ccccc23)cc1
- IC50 (cells): 2.56 µM (active)

SMILES: Cc1ccc(N2NC(=O)/C(=C/C=C/c3ccco3)C2=O)cc1C
- IC50 (cells): 13 µM (active)

SMILES: CCOC(=O)c1cc(-c2csc(COc3ccc(Cl)cc3)n2)on1
- IC50 (cells): < 0.1 µM (active)

SMILES: O=C1C=C(c2ccc(Cl)c(C(F)(F)F)c2)C[C@@H](c2ccc(Cl)cc2)C1
- CC50 [1]: 12.1 µM (active)
- AC50 [5]: 3.41 µM (active)

SMILES: COc1cccc2cc(C(=O)NCc3ccc(F)cc3)c(=N)oc12
- IC50 (cells): > 50 µM (active)

SMILES: O=C(Nc1nc(=O)c2ccccc2s1)c1ccc(F)cc1
- EC50 (H4): > 120 µM (not active)
- EC50 [6]: 0.107 µM (active)

SMILES: CCOc1cc(/C=C(\C#N)C(=O)NCC2CCCO2)ccc1O (stereo unspecified)
- IC50 [3]: 41.5 µM (active)

SMILES: COc1ccc(OC)c(Nc2nc(N(C)c3ccccc3)nc(N)c2[N+](=O)[O-])c1
- CC50 [1]: > 50 µM (active)
- EC50 [7]: > 30 µM (not active)
- EC50 [8]: 0.888 µM (active)

SMILES: CC(=O)O[C@H]1C[C@@]2(C)[C@@H](C[C@@H](O)[C@H]3[C@@]4(C)CC[C@@H](O)[C@@H](C)[C@@H]4CC[C@@]32C)/C1=C(/CCC=C(C)C)C(=O)O
- IC50 (Large T antigen): 31.6 µM (active)

SMILES: CCn1c2ccccc2c2nnc(SCc3ccccc3)nc21
- CC50 [1]: 34.6 µM (active)

SMILES: O=C(COc1ccc(-c2ccccc2)cc1)Nc1cccnc1
- IC50 (cells): 4.39 µM (active)

SMILES: CCC(Sc1nc(C)cc(C)n1)C(=O)NC1=NN=C(c2ccc(C)cc2)CS1 (stereo unspecified)
- AC50 (INS1): 4.8 µM (active)
- EC50 [9]: 12.2 µM (active)

SMILES: Cc1cc(C=C2C(=O)N(C)C(=S)N(C)C2=O)c(C)n1-c1ccncc1
- IC50 (Large T antigen): 50.2 µM (active)

SMILES: Oc1c2c(nc3cc(-c4cccc(Cl)c4)nn13)CCCC2
- CC50 [1]: 39.3 µM (active)

SMILES: NNC(=O)c1sc(-c2ccc(Cl)cc2)cc1N
- AC50 [2]: 2.39 µM (active)

SMILES: COc1cc(/C=C/C(=O)OCc2cn3cc(Cl)ccc3n2)ccc1O
- IC50 [3]: 45.5 µM (active)

SMILES: Cc1cccc(NC(=O)CC2Nc3cccc4cccc(c34)NC2=O)c1 (stereo unspecified)
- CC50 [1]: > 50 µM (active)
- AC50 (Cytochrome P450 2C9): 12.6 µM (inconclusive)

SMILES: COc1ccc(N2CSC3=C(C#N)C(c4cc(OC)ccc4OC)CC(=O)N3C2)c(OC)c1 (stereo unspecified)
- IC50 (Large T antigen): 63.1 µM (active)

SMILES: CN(C)S(=O)(=O)c1ccc(-c2cn3ccccc3n2)cc1
- AC50 [2]: 2.05 µM (active)

SMILES: COC(=O)c1c(NC(=O)C2CC=CCC2C(=O)O)sc(C(N)=O)c1C (stereo unspecified)
- AC50 [2]: 3.13 µM (active)

SMILES: CC(=O)c1cccc(Oc2cc(NN3CCCCC3)c([N+](=O)[O-])cc2[N+](=O)[O-])c1
- AC50 [2]: 0.471 µM (active)

SMILES: CCN(CC)S(=O)(=O)c1ccc(NCC2COc3ccccc3O2)c([N+](=O)[O-])c1 (stereo unspecified)
- CC50 [1]: 13 µM (active)

SMILES: COc1cc(/C=N/NC(=O)c2nonc2C)ccc1O
- EC50 [10]: 4.42 µM (active)
- EC50 [11]: 23.5 µM (active)
- IC50 [3]: 28.8 µM (active)

SMILES: O=C(O)c1ccc(NC(=O)c2cn(-c3ccccc3)nc2-c2ccc(Br)cc2)cc1
- CC50 [1]: 21 µM (active)

SMILES: CN(C)c1ccc(CNc2ccc3c(c2)ncn3C)cc1
- IC50 (Large T antigen): 22.1 µM (active)
- AC50 [2]: 1.78 µM (active)

SMILES: COc1ccc(NC(S)=NCC2CCN(c3ccc(OC)cc3)C2)cc1 (stereo unspecified)
- IC50 [3]: 39.4 µM (active)

SMILES: Cc1ccc(O)c(CCc2ccc(O)cc2)n1
- AC50 [2]: 2.64 µM (active)

SMILES: COc1cc(/C=C/C(=O)OCC(=O)Nc2ccc3c(c2)OCCO3)ccc1O
- IC50 [3]: 39.8 µM (active)

SMILES: O=C(NCCCN1CCCC1=O)C(=O)Nc1cccc(F)c1
- EC50 (H4): > 120 µM (not active)
- EC50 [6]: 0.233 µM (active)

SMILES: COc1cc(/C(C)=N/NC(=O)CSc2nnc(C)s2)ccc1O
- IC50 (Large T antigen): 24.2 µM (active)

SMILES: COc1cc(/C=N/NC(=O)c2ccc3[nH]cnc3c2)ccc1O
- IC50 (Large T antigen): 7.38 µM (active)

SMILES: Cc1cccc(-n2c(=O)c3ccccc3n3c(S)nnc23)c1C
- IC50 [3]: 40.7 µM (active)

SMILES: CNc1nc(-c2ccc3c(c2)CCN3C(=O)c2cccc(F)c2)cs1
- EC50 (H4): 4.2 µM (active)
- EC50 [6]: 1.41 µM (active)

SMILES: Cc1csc(/C(=N/OC(=O)c2ccco2)C(N)=O)n1
- AC50 [2]: 0.252 µM (active)

SMILES: COC(=O)CN(C#N)c1nc(N(C)C)nc(N(C)C)n1
- IC50 (cells): 9.57 µM (active)

SMILES: CCOc1ccc(-c2nnc(NC(=O)CCCOc3cccc(C)c3)o2)cc1
- IC50 (cells): 5.86 µM (active)

SMILES: CCn1c(=O)c(C(=O)CN(C)Cc2cccc(OC)c2OC)c(N)n(Cc2ccccc2)c1=O
- IC50 [3]: 83.9 µM (active)
